Drawing on ChEMBL document CHEMBL2010718, “Human kallikrein 6 inhibitors with a para-amidobenzylanmine P1 group identified through virtual screening” (Bioorg Med Chem Lett, 2012), this text covers IC50 and Ki for 4 molecules.

The term pIC50 denotes −log10 of the IC50, conventionally taken in molar units. Read a high pIC50 as a small IC50. The pKi is the negative decadic logarithm of the Ki, by convention in mol/L. Low readings indicate a large Ki, high ones a small Ki.

Experiment [1] has as its target T1, Prostate-specific antigen (Homo sapiens, UniProt P07288).
T1 sequence (P07288 whole entry): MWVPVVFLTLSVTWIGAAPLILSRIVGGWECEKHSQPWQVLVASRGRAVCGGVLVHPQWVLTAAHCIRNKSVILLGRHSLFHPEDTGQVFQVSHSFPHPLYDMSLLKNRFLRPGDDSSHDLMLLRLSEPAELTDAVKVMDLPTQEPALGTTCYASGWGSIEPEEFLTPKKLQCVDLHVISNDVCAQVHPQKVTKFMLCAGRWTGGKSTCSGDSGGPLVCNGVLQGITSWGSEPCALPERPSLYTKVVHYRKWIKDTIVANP
The experiment is described as follows: Inhibition of human kallikrein 3.

The next experiment deals with Kallikrein-1 (Homo sapiens, UniProt P06870). The experiment is described as follows: Inhibition of human kallikrein 1.
For a further experiment, the target named is Plasma kallikrein (Homo sapiens, UniProt P03952). The experiment in a line: Inhibition of plasma kallikrein.

pIC50, pKi: −log10 of the molar value.

Kallikrein-1, sequence (P06870 whole entry): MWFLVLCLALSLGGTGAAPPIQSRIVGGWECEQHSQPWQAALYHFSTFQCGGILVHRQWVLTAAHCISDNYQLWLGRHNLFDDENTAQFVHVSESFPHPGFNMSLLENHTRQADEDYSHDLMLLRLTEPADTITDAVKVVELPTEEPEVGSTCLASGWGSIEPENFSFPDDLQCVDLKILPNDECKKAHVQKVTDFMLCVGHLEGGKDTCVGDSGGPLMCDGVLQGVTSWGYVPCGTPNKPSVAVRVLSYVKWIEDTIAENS
Plasma kallikrein, sequence (P03952 20-390 limits assumed): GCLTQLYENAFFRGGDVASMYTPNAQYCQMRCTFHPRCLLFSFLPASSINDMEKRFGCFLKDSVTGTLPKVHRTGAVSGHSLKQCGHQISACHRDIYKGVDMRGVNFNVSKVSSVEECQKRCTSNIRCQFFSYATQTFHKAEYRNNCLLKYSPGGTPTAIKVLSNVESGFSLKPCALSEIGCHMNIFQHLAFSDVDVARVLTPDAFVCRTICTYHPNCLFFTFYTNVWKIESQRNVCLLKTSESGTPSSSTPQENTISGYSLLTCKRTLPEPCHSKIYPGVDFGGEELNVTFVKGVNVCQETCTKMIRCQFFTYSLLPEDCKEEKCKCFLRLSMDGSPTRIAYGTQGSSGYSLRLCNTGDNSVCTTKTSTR
Plasma kallikrein, sequence (P03952 391-638 limits assumed): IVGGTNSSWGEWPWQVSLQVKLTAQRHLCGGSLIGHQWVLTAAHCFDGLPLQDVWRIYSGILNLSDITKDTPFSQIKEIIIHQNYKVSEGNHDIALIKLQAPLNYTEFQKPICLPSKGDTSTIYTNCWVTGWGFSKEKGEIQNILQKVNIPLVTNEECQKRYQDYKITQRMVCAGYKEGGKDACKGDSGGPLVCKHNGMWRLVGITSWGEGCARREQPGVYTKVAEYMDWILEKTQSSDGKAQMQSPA

Regarding `O=C(OCc1ccccc1)c1cccc(OC(=O)N2C(=O)[C@@H](Cc3ccc(O)cc3)[C@H]2C(=O)OCc2ccccc2)c1`, in experiment [1], the pIC50 is 6.65. `N=C(N)c1cc(Br)c(OCCCCCOc2c(Br)cc(C(=N)N)cc2Br)c(Br)c1` showed a pKi on Kallikrein-1 of 6.09.

Molecule `N=C(N)c1ccc(OCc2ccc(COc3ccc(C(=N)N)cc3I)cc2)c(I)c1` had a pKi at Kallikrein-1 of 7.51.

For the molecule `NC[C@H]1CC[C@H](C(=O)NC(Cc2ccc(Oc3ncccn3)cc2)C(=O)Nc2cccc(C(=O)O)c2)CC1` (some centres undefined), on Plasma kallikrein, the pIC50 is 6.15.
